Biological target: αvβ6 integrin (Homo sapiens, UniProt P06756+P18564)
Test: IC50 binding activity (Examples 3 and 12)
Conditions: Example 12, Table 17; azide-functionalized structures (2b, 6.1b, 7b, 23b) examined
Source text: As reported in the following Table 1, IC50 binding data was obtained for the αvβ6 integrin ligands of Structures 1 and 2:
Azide-functionalized structures (i.e., Structures 1b and 2b) were examined for IC50 under conditions typically used and known in the art.
As reported in the following Table 17, additional IC50 binding data was obtained for the αvβ6 integrin ligands of Structures 2, 6.1, 7, and 23 used in certain Examples herein: […]

Sequence of αvβ6 integrin (P06756 31-1048): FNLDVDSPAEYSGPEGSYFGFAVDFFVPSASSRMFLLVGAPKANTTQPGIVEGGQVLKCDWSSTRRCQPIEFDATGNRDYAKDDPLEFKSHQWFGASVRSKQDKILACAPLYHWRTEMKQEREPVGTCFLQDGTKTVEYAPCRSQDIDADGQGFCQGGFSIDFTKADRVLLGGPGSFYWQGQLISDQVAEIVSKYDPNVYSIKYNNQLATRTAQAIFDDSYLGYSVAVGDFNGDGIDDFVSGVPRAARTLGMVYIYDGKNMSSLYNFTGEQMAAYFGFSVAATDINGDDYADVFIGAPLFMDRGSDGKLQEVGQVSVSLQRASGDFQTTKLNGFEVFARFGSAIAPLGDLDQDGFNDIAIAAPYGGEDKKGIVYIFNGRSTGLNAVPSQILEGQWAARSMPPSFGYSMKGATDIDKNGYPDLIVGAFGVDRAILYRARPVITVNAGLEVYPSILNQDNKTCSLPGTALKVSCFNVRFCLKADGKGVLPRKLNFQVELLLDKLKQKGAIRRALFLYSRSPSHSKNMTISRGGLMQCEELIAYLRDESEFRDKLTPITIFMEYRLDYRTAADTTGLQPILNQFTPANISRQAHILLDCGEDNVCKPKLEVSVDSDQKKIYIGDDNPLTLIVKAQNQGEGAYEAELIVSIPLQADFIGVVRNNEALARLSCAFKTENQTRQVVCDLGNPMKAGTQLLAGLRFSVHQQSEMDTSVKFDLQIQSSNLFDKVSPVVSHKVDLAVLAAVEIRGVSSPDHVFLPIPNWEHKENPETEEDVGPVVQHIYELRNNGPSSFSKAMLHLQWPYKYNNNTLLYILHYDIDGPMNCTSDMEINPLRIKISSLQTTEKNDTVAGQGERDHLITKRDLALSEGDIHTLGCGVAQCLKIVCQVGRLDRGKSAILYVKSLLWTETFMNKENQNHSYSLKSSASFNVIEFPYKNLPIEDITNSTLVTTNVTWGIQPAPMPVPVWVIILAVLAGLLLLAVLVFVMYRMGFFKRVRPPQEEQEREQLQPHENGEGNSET
Sequence of αvβ6 integrin (P18564 22-788): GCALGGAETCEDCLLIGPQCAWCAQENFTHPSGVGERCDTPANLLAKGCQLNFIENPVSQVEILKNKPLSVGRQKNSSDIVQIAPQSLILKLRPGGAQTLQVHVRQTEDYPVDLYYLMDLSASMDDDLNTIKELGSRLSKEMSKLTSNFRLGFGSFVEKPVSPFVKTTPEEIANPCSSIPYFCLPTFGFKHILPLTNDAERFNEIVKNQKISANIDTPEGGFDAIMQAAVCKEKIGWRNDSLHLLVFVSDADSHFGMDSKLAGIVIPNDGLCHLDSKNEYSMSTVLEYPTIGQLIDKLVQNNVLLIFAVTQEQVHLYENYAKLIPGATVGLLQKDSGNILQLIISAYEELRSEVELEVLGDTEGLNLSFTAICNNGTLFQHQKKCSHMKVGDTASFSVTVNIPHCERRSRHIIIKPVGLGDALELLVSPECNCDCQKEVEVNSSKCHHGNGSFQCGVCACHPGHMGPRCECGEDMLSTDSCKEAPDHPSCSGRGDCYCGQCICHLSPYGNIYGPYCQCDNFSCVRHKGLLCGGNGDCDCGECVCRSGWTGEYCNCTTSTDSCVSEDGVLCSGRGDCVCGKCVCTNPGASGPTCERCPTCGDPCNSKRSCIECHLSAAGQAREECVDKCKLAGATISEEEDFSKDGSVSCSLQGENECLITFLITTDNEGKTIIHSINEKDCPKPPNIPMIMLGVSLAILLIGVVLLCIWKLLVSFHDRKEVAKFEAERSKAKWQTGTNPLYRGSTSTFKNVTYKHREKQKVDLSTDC

## Cc1ccnc(NCCCC(=O)NCC(=O)N[C@@H](CC(=O)O)c2ccc(-c3ccc(OCCOCCOCCOCCOCCN=[N+]=[N-])c4ccccc34)cc2)c1 [Structure 6.1]
  IC50: 1.6 nM

Source: US11597701B2, “Integrin ligands and uses thereof” (Arrowhead Pharmaceuticals, Inc., priority 2017, dated 2023)
